The values that follow come from ChEMBL document CHEMBL5046278, “Synthesis and Evaluation of Novel Tetrahydronaphthyridine CXCR4 Antagonists with Improved Drug-like Profiles” (J Med Chem, 2022).

Data set [1] is described as follows: Metabolic stability in human liver microsomes assessed compound remaining measured after 10 mins in presence of NADPH. Format: ADME, Microsome. The conditions noted are these: read-out: Stability.
Data set [2] can be described thus: Permeability of compound at pH 5.5 incubated for 4 hrs by PAMPA assay. Format: ADME. Particulars: read-out: permeability.
The nature of data set [3]: Metabolic stability in mouse liver microsomes assessed compound remaining measured after 10 mins in presence of NADPH. Format: ADME, Microsome. Particulars: read-out: Stability.
Data set [4] in a line: Antagonist activity at mAChR (unknown origin) expressed in CCRF-CEM cells assessed as inhibition of calcium release by calcium flux assay. Type of data set: cell-based. The conditions noted are these: Homo sapiens.
Data set [5] is described as follows: Permeability of compound at pH 7.4 incubated for 4 hrs by PAMPA assay. The conditions noted are these: read-out: permeability. Type of data set: ADME.
The next data set addresses Cytochrome P450 2D6 (Homo sapiens, UniProt P10635). The data set can be described thus: Inhibition of recombinant human CYP2D6 using AMMC as substrate preincubated for 30 mins followed by substrate addition measured after 45 mins by fluorescence based assay. Type of data set: ADME.
A short description of data set [6]: Antagonist activity at human CXCR4 receptor expressed in CCRF-CEM cells assessed as inhibition of CXCL12-induced calcium release by calcium flux assay. Type of data set: cell-based.
Data set [7] can be described thus: Metabolic stability in rat liver microsomes assessed compound remaining measured after 10 mins in presence of NADPH. Format: ADME, Microsome. Particulars: read-out: Stability.
The target in data set [8] is T1, Alpha-2C adrenergic receptor (Homo sapiens, UniProt P18825).
T1 sequence (P18825 whole entry): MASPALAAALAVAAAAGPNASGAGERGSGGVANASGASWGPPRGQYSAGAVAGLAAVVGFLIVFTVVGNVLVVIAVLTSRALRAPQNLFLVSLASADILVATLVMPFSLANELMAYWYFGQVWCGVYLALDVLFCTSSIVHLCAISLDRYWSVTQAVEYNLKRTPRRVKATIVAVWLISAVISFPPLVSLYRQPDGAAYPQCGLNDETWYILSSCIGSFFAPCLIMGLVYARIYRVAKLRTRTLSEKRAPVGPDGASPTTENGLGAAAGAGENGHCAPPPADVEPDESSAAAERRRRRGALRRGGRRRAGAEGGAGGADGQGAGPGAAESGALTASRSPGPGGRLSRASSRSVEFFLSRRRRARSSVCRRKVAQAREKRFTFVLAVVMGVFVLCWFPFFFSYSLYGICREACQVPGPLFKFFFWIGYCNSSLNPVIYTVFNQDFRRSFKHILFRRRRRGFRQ
The data set can be described thus: Inhibition of alpha 2C adrenergic receptor (unknown origin).

Data set [9] addresses Kappa-type opioid receptor (Homo sapiens, UniProt P41145). As to the kind of experiment: Inhibition of kappa opioid receptor (unknown origin).
The target of data set [10] is Neuronal acetylcholine receptor subunit alpha-7 (Homo sapiens, UniProt P36544). As to the kind of experiment: Inhibition of alpha7 nicotinic acetylcholine receptor (unknown origin).
Sequence of Neuronal acetylcholine receptor subunit alpha-7 (P36544 whole entry): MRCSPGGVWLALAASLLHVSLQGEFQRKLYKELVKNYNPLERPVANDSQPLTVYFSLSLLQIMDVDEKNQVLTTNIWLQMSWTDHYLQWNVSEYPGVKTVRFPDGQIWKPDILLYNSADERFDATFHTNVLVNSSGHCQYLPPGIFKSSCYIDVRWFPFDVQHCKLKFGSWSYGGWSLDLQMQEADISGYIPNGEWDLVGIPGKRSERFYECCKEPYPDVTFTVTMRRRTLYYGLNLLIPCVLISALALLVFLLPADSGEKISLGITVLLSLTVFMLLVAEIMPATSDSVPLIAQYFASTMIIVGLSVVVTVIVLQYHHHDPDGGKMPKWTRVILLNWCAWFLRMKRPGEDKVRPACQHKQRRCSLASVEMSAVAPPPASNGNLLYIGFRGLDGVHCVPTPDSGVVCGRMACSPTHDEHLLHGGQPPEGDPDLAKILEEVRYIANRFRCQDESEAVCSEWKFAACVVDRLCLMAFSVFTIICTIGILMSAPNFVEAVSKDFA
In a further data set the target is D(2) dopamine receptor (Homo sapiens, UniProt P14416). As to the kind of experiment: Inhibition of dopamine D2 receptor (unknown origin).
Sequence of D(2) dopamine receptor (P14416 whole entry): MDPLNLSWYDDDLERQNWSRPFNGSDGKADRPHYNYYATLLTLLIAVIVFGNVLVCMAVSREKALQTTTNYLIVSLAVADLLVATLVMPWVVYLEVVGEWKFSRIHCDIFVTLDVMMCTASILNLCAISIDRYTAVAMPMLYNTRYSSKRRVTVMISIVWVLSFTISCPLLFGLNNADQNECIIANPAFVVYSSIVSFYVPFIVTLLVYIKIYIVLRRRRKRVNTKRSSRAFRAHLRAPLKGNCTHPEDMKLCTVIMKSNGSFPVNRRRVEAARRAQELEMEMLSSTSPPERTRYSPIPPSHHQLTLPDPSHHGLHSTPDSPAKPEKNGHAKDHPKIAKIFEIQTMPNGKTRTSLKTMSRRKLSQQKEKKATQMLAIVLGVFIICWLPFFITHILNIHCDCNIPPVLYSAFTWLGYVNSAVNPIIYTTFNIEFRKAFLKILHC
In the next data set the target is Mu-type opioid receptor (Homo sapiens, UniProt P35372). As to the kind of experiment: Inhibition of mu opioid receptor (unknown origin).
Sequence of Mu-type opioid receptor (P35372 whole entry): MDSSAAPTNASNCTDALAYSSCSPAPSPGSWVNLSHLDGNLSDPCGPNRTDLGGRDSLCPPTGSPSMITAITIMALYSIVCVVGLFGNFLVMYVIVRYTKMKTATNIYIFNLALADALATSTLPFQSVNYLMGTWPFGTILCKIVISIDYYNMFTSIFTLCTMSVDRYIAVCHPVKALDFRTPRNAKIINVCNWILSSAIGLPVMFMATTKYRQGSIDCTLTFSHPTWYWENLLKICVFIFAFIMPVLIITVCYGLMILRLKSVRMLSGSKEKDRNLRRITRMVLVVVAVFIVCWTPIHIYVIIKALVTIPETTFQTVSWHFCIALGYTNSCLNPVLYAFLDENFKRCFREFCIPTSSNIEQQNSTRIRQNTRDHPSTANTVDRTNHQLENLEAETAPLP
The target in data set [11] is Voltage-gated inwardly rectifying potassium channel KCNH2 (Homo sapiens, UniProt Q12809). The data set can be described thus: Inhibition of human ERG by [3H]]Astemizole binding assay. Format: toxicity.
Sequence of Voltage-gated inwardly rectifying potassium channel KCNH2 (Q12809 whole entry): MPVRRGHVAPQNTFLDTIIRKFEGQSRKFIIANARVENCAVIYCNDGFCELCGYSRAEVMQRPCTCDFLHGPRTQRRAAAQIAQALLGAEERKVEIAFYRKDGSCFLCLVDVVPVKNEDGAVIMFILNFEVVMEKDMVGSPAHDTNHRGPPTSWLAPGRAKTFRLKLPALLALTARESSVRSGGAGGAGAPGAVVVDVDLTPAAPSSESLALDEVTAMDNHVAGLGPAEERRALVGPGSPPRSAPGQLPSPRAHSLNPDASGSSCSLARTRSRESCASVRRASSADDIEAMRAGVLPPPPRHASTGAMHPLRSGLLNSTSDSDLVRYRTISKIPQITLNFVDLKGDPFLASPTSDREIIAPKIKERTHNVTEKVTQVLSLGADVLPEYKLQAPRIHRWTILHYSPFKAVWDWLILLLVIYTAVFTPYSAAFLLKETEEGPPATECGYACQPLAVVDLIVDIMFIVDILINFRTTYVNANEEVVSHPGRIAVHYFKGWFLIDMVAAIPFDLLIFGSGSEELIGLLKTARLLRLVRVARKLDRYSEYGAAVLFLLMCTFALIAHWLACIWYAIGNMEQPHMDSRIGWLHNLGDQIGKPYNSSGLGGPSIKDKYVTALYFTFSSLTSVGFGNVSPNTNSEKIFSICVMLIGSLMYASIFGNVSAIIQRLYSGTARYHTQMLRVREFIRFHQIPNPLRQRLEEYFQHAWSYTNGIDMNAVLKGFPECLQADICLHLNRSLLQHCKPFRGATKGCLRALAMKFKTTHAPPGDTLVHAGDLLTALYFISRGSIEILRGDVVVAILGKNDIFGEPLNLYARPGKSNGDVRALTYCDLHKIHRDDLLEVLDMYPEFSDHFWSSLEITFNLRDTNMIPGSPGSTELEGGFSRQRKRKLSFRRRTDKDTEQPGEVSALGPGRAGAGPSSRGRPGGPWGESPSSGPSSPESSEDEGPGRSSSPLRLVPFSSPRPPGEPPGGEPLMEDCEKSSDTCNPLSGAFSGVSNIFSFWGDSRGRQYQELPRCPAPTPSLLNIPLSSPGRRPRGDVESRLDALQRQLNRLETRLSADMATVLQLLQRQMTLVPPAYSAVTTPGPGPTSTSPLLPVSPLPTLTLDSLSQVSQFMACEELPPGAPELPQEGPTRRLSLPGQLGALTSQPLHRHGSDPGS
Data set [12] addresses T2, Muscarinic acetylcholine receptor M2 (Homo sapiens, UniProt P08172).
T2 sequence (P08172 whole entry): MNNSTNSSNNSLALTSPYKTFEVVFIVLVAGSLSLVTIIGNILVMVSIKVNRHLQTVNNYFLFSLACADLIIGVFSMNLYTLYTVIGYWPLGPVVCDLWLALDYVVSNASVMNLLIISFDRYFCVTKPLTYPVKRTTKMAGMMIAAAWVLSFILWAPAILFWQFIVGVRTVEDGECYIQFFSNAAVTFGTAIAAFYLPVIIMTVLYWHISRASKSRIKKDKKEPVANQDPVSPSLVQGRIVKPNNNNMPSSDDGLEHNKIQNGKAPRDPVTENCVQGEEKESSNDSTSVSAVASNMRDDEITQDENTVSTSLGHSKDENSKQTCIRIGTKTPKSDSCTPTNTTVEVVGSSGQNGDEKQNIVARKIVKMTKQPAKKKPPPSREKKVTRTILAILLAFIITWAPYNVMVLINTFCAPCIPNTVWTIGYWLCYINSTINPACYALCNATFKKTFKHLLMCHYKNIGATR
The data set can be described thus: Inhibition of M2 mAChR receptor (unknown origin).

Sequence of Cytochrome P450 2D6 (P10635 whole entry): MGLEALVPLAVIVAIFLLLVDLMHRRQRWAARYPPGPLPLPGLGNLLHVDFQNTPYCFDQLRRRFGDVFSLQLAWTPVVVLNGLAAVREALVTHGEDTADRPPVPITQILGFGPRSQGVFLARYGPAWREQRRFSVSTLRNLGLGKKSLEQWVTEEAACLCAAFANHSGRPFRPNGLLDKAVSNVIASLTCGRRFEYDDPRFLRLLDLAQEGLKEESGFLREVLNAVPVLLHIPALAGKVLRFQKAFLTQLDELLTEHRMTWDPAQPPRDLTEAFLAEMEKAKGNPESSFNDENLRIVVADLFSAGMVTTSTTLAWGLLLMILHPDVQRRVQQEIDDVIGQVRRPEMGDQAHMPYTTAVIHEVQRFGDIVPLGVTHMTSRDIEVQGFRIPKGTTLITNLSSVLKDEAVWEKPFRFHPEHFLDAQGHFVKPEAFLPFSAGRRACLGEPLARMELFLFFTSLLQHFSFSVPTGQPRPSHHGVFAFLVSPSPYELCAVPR
Sequence of Kappa-type opioid receptor (P41145 whole entry): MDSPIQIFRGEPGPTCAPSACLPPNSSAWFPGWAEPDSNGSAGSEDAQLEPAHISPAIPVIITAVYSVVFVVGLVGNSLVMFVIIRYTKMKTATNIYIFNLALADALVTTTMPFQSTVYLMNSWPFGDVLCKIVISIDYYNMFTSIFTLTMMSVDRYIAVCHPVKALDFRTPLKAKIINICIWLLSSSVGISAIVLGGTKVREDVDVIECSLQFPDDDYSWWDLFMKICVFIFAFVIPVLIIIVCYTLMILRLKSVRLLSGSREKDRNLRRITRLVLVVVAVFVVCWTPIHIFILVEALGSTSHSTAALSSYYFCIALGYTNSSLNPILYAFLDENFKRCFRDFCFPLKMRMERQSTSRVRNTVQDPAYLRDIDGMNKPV

With `CN(C[C@@H]1Cc2ncccc2CN1)[C@H]1CCCc2cccnc21`, the figures for the remaining at 10 min in data set [1], in [3] and in [7] were 100%, 0% and 1%, respectively. Moreover, the Papp at 4 h in data set [2] amounted to 23 ×10⁻⁶ cm/s; in data set [5], 100 ×10⁻⁶ cm/s. Further, the figures for the IC50 (in data set [4]; at Cytochrome P450 2D6; in data set [6]) were under 17 µM, 2.7 µM and over 33 µM, respectively.

Take `NCCCCN(C[C@@H]1Cc2cccnc2CN1)[C@H]1CCCc2cccnc21`: the remaining at 10 min in data set [1] turned out to be 92%; in data set [3], 25%; in data set [7], 37%. Moreover, the Papp at 4 h in [5] turned out to be 7.7 ×10⁻⁶ cm/s. Moreover, the IC50 at Cytochrome P450 2D6 amounted to 4.4 µM; in data set [6] it was 0.22 µM.

Consider `CN(C)CCCCN(C[C@H]1Cc2ncccc2CN1)[C@H]1CCCc2cccnc21`, for which the values for the remaining at 10 min in data set [1], in [3] and in data set [7] were 100%, 55% and 27%, respectively. Also, the Papp at 4 h came out at 0.2 ×10⁻⁶ cm/s in [2] and 24 ×10⁻⁶ cm/s in data set [5]. Moreover, the IC50 in [4] is over 17 µM; at Cytochrome P450 2D6, 10 µM; in [6] it was 0.27 µM.

`CCN(CC)CCCCN(C[C@H]1Cc2ncccc2CN1)[C@H]1CCCc2cccnc21`: the remaining at 10 min in data set [1] amounted to 80%; in data set [3], 1%; in data set [7] it was 6%. Further, the Papp at 4 h in data set [2] amounted to 0.3 ×10⁻⁶ cm/s; in data set [5], 24 ×10⁻⁶ cm/s. The IC50 in data set [4] is over 17 µM; at Cytochrome P450 2D6 it was 10 µM; in data set [6], 0.39 µM.

For `FC1(F)CCC(NCCCCN(C[C@H]2Cc3ncccc3CN2)[C@H]2CCCc3cccnc32)CC1`, the values for the remaining at 10 min in [1], in [3] and in data set [7] were 88%, 47% and 10%, respectively. Also, the IC50 in data set [4] turned out to be 31 µM; at Cytochrome P450 2D6, 15 µM; in [6] it was 0.029 µM. The Papp at 4 h in data set [5] was determined as 5.2 ×10⁻⁶ cm/s.

Consider `NC(=O)NCCCCN(C[C@H]1Cc2ncccc2CN1)[C@H]1CCCc2cccnc21`, for which the figures for the remaining at 10 min in data set [1], in data set [3] and in data set [7] were 91%, 32% and 1%, respectively. For the same compound, the values for the Papp at 4 h in [2] and in data set [5] were 0.7 ×10⁻⁶ cm/s and 0.2 ×10⁻⁶ cm/s, respectively. For the same compound, the IC50 in data set [4] was over 17 µM; at Cytochrome P450 2D6 it was 13 µM; in data set [6], 0.93 µM.

On to `NC(=O)NC/C=C/CN(C[C@H]1Cc2ncccc2CN1)[C@H]1CCCc2cccnc21`, for which the remaining at 10 min in data set [1] was determined as 93%; in data set [3], 19%; in data set [7], 1%. The Papp at 4 h in data set [2] was determined as 0.6 ×10⁻⁶ cm/s; in data set [5], 0.2 ×10⁻⁶ cm/s. Further, the IC50 in [4] was over 17 µM; on Cytochrome P450 2D6, 18 µM; in data set [6] it was 0.43 µM.

On to `NCc1ccc(CN(C[C@H]2Cc3ncccc3CN2)[C@H]2CCCc3cccnc32)cc1`, for which the remaining at 10 min in data set [1] worked out at 100%; in data set [3], 53%; in data set [7], 78%. The Papp at 4 h in data set [2] is 2 ×10⁻⁶ cm/s; in data set [5] it was 6.9 ×10⁻⁶ cm/s. Further, the IC50 in data set [4] was found to be 26 µM; on Cytochrome P450 2D6, 2.7 µM; in data set [6], 0.11 µM.

For the compound `NCCCCN(C[C@@H]1Cc2ncccc2CN1)[C@H]1CCCc2cccnc21`, the remaining at 10 min in data set [1] is 98%; in data set [3] it was 75%; in data set [7] it was 55%. Further, the figures for the Papp at 4 h in [2] and in [5] were 0.2 ×10⁻⁶ cm/s and 0.7 ×10⁻⁶ cm/s, respectively. Further, the figures for the IC50 (on Cytochrome P450 2D6; in data set [6]) were 9.7 µM and 0.55 µM, respectively.

Take `NCCCCN(C[C@H]1Cc2ccccc2CN1)[C@H]1CCCc2cccnc21`: the Papp at 4 h in data set [2] turned out to be 0.6 ×10⁻⁶ cm/s. Further, the IC50 in data set [4] is under 30 µM; in data set [8], 23 µM; in [9], 1.6 µM; in [10], over 30 µM; against D(2) dopamine receptor it was 5.7 µM.

Turning to `c1cnc2c(c1)CN[C@@H](CN(CCCCN(C1COC1)C1COC1)[C@H]1CCCc3cccnc31)C2`, the remaining at 10 min in data set [1] is 62%; in data set [3] it was 33%; in data set [7], 72%. Moreover, the Papp at 4 h in data set [2] was 6.2 ×10⁻⁶ cm/s; in data set [5], 32 ×10⁻⁶ cm/s. Further, the IC50 in data set [4] is over 33 µM; on Cytochrome P450 2D6, over 20 µM; in [6] it was 3 µM.

In the case of `NC(=O)NC/C=C\CN(C[C@H]1Cc2ncccc2CN1)[C@H]1CCCc2cccnc21`, the remaining at 10 min in data set [1] was 100%; in data set [3], 10%; in data set [7] it was 1%. Also, the Papp at 4 h was 0.5 ×10⁻⁶ cm/s in data set [2] and 0.2 ×10⁻⁶ cm/s in data set [5]. For the same compound, the IC50 in data set [4] was over 17 µM; at Cytochrome P450 2D6, 20 µM; in data set [6] it was 0.46 µM.

As to `c1cnc2c(c1)CN[C@@H](CN(CCCC1CCNCC1)[C@H]1CCCc3cccnc31)C2`, the IC50 against Mu-type opioid receptor was over 30 µM; in [11], 9.3 µM; in data set [12] it was over 30 µM; in [4] it was over 33 µM; on Cytochrome P450 2D6, over 20 µM; in [8] it was 2.2 µM. In addition, the IC50 in data set [6] was found to be 0.035 µM; in data set [9], 4.8 µM; in data set [10], 17 µM; on D(2) dopamine receptor it was 9.8 µM. Besides, the remaining at 10 min turned out to be 100% in data set [1], 69% in data set [3] and 40% in [7]. Besides, the values for the Papp at 4 h in [2] and in data set [5] were 1.4 ×10⁻⁶ cm/s and 2.4 ×10⁻⁶ cm/s, respectively.

With `NCCCCN(C[C@H]1Cc2nccnc2CN1)[C@H]1CCCc2cccnc21`, the values for the remaining at 10 min in data set [1], in data set [3] and in data set [7] were 84%, 77% and 50%, respectively. Also, the Papp at 4 h in data set [2] and in data set [5] was 0.2 ×10⁻⁶ cm/s throughout. Besides, the IC50 in data set [4] was under 33 µM; at Cytochrome P450 2D6 it was over 20 µM; in data set [6] it was 0.042 µM.

On to `NC/C=C\CN(C[C@H]1Cc2ncccc2CN1)[C@H]1CCCc2cccnc21`, for which the remaining at 10 min in [1] was 85%; in [3] it was 37%; in [7] it was 11%. For the same compound, the Papp at 4 h is 2.8 ×10⁻⁶ cm/s in data set [2] and 6.8 ×10⁻⁶ cm/s in data set [5]. The IC50 in [4] stood at 0.18 µM; on Cytochrome P450 2D6, 13 µM; in data set [6] it was 0.026 µM.

Consider `NC/C=C/CN(C[C@H]1Cc2ncccc2CN1)[C@H]1CCCc2cccnc21`, for which the remaining at 10 min amounted to 85% in data set [1], 37% in [3] and 11% in data set [7]. The Papp at 4 h is 0.2 ×10⁻⁶ cm/s in [2] and 1.5 ×10⁻⁶ cm/s in [5]. The IC50 in data set [4] was determined as 28 µM; at Cytochrome P450 2D6 it was 0.7 µM; in [6], 0.15 µM.

Turning to `NCCCCN(C[C@@H]1Cc2nccnc2CN1)[C@H]1CCCc2cccnc21`, the remaining at 10 min in data set [1] came out at 87%; in data set [3], 73%; in data set [7], 67%. Moreover, the Papp at 4 h in data set [2] and in [5] was 0.2 ×10⁻⁶ cm/s each time. For the same compound, the IC50 on Cytochrome P450 2D6 was over 20 µM; in data set [6], 0.13 µM.

Turning to `CN(C[C@H]1Cc2ncccc2CN1)[C@H]1CCCc2cccnc21`, the remaining at 10 min in [1] was determined as 95%; in data set [3], 53%; in [7], 7%. Also, the values for the Papp at 4 h in data set [2] and in data set [5] were 46 ×10⁻⁶ cm/s and 130 ×10⁻⁶ cm/s, respectively. Also, the values for the IC50 (in data set [4]; on Cytochrome P450 2D6; in [6]) were under 17 µM, 2.8 µM and 0.48 µM, respectively.
